Assays:
RPMI-8226 = assay: Growth inhibition of human RPMI8226 cells assessed as cell growth at 100 uM incubated for 48 hrs by sulforhodamine B assay relative to control; assay type: functional; conditions: RPMI-8226, 48 h, read-out: Activity
MOLT-4 = assay: Growth inhibition of human MOLT4 cells assessed as cell growth at 1 uM incubated for 48 hrs by sulforhodamine B assay relative to control; assay type: functional; conditions: MOLT-4, 48 h, read-out: Activity
COLO 205 [1] = assay: Growth inhibition of human COLO205 cells incubated for 48 hrs by sulforhodamine B assay; assay type: functional, cell-based; conditions: COLO 205, 48 h
ACHN = assay: Growth inhibition of human ACHN cells assessed as cell growth at 1 uM incubated for 48 hrs by sulforhodamine B assay relative to control; assay type: functional; conditions: read-out: Activity
SK-MEL-2 = assay: Growth inhibition of human SK-MEL-2 cells assessed as cell growth at 0.1 uM incubated for 48 hrs by sulforhodamine B assay relative to control; assay type: functional; conditions: SK-MEL-2, 48 h, read-out: Activity
Malme-3M [2] = assay: Growth inhibition of human MALME-3M cells assessed as cell growth at 0.01 uM incubated for 48 hrs by sulforhodamine B assay relative to control; assay type: functional; conditions: read-out: Activity
OVCAR-5 [3] = assay: Growth inhibition of human OVCAR5 cells assessed as cell growth at 100 uM incubated for 48 hrs by sulforhodamine B assay relative to control; assay type: functional; conditions: OVCAR-5, 48 h, read-out: Activity
MDA-MB-231 [4] = assay: Growth inhibition of human MDA-MB-231 cells assessed as cell growth at 0.01 uM incubated for 48 hrs by sulforhodamine B assay relative to control; assay type: functional; conditions: MDA-MB-231, 48 h, read-out: Activity
SR = assay: Growth inhibition of human SR cells assessed as cell growth at 100 uM incubated for 48 hrs by sulforhodamine B assay relative to control; assay type: functional; conditions: read-out: Activity
OVCAR-3 = assay: Growth inhibition of human OVCAR3 cells assessed as cell growth at 1 uM incubated for 48 hrs by sulforhodamine B assay relative to control; assay type: functional; conditions: OVCAR-3, 48 h, read-out: Activity
A498 = assay: Growth inhibition of human A498 cells assessed as cell growth at 0.01 uM incubated for 48 hrs by sulforhodamine B assay relative to control; assay type: functional; conditions: A498, 48 h, read-out: Activity
NCI-H226 = assay: Growth inhibition of human NCI-H226 cells assessed as cell growth at 1 uM incubated for 48 hrs by sulforhodamine B assay relative to control; assay type: functional; conditions: NCI-H226, 48 h, read-out: Activity
MDA-MB-231 [5] = assay: Growth inhibition of human MDA-MB-231 cells assessed as cell growth at 0.1 uM incubated for 48 hrs by sulforhodamine B assay relative to control; assay type: functional; conditions: MDA-MB-231, 48 h, read-out: Activity
SF-295 [6] = assay: Growth inhibition of human SF295 cells assessed as cell growth at 100 uM incubated for 48 hrs by sulforhodamine B assay relative to control; assay type: functional; conditions: SF-295, 48 h, read-out: Activity
T47D = assay: Growth inhibition of human T47D cells assessed as cell growth at 0.1 uM incubated for 48 hrs by sulforhodamine B assay relative to control; assay type: functional; conditions: read-out: Activity
NCI-H460 = assay: Growth inhibition of human NCI-H460 cells assessed as cell growth at 1 uM incubated for 48 hrs by sulforhodamine B assay relative to control; assay type: functional; conditions: NCI-H460, 48 h, read-out: Activity
SF-295 [7] = assay: Growth inhibition of human SF295 cells incubated for 48 hrs by sulforhodamine B assay; assay type: functional, cell-based; conditions: SF-295, 48 h
OVCAR-8 = assay: Growth inhibition of human OVCAR8 cells assessed as cell growth at 100 uM incubated for 48 hrs by sulforhodamine B assay relative to control; assay type: functional; conditions: OVCAR-8, 48 h, read-out: Activity
SN12C = assay: Growth inhibition of human SN12C cells incubated for 48 hrs by sulforhodamine B assay; assay type: functional, cell-based
OVCAR-5 [8] = assay: Growth inhibition of human OVCAR5 cells incubated for 48 hrs by sulforhodamine B assay; assay type: functional, cell-based; conditions: OVCAR-5, 48 h
IGROV-1 = assay: Growth inhibition of human IGROV1 cells incubated for 48 hrs by sulforhodamine B assay; assay type: functional, cell-based; conditions: IGROV-1, 48 h
NCI/ADR-RES = assay: Growth inhibition of human NCI/ADR-RES cells assessed as cell growth at 1 uM incubated for 48 hrs by sulforhodamine B assay relative to control; assay type: functional; conditions: read-out: Activity
SNB-75 = assay: Growth inhibition of human SNB75 cells incubated for 48 hrs by sulforhodamine B assay; assay type: functional, cell-based; conditions: SNB-75, 48 h
Malme-3M [9] = assay: Growth inhibition of human MALME-3M cells assessed as cell growth at 0.1 uM incubated for 48 hrs by sulforhodamine B assay relative to control; assay type: functional; conditions: read-out: Activity
COLO 205 [10] = assay: Growth inhibition of human COLO205 cells assessed as cell growth at 100 uM incubated for 48 hrs by sulforhodamine B assay relative to control; assay type: functional; conditions: COLO 205, 48 h, read-out: Activity
UACC-257 [11] = assay: Growth inhibition of human UACC257 cells assessed as cell growth at 0.01 uM incubated for 48 hrs by sulforhodamine B assay relative to control; assay type: functional; conditions: UACC-257, 48 h, read-out: Activity
UACC-257 [12] = assay: Growth inhibition of human UACC257 cells assessed as cell growth at 0.1 uM incubated for 48 hrs by sulforhodamine B assay relative to control; assay type: functional; conditions: UACC-257, 48 h, read-out: Activity
HCT-15 = assay: Growth inhibition of human HCT15 cells assessed as cell growth at 100 uM incubated for 48 hrs by sulforhodamine B assay relative to control; assay type: functional; conditions: HCT-15, 48 h, read-out: Activity
CAKI-1 = assay: Growth inhibition of human Caki1 cells assessed as cell growth at 100 uM incubated for 48 hrs by sulforhodamine B assay relative to control; assay type: functional; conditions: CAKI-1, 48 h, read-out: Activity
NCI-H522 = assay: Growth inhibition of human NCI-H522 cells assessed as cell growth at 1 uM incubated for 48 hrs by sulforhodamine B assay relative to control; assay type: functional; conditions: NCI-H522, 48 h, read-out: Activity
[13] = read-out: LC50 (the source's name)
[14] = read-out: pLC50 (the source's name) (converted)

COc1cc(Cl)cc(-c2nn(-c3cccc(NC(=O)Nc4ccc(Cl)c(Cl)c4)c3)cc2-c2ccncc2)c1
growth at 100 µM (RPMI-8226): -34%
growth at 1 µM (MOLT-4): 70%
GI50 (COLO 205 [1]; read-out: GI50): 1.71 µM
CC50 (COLO 205 [1]; [13]): 6.4 µM
TGI (COLO 205 [1]; read-out: TGI): 33.1 µM
GI50 (COLO 205 [1]; read-out: pGI50 (converted)): 1.7 µM
CC50 (COLO 205 [1]; [14]): 6.46 µM
TGI (COLO 205 [1]; read-out: pTGI (converted)): 3.31 µM
growth at 1 µM (ACHN): 91%
growth at 0.1 µM (SK-MEL-2): 54%
growth at 0.01 µM (Malme-3M [2]): 92%
growth at 100 µM (OVCAR-5 [3]): 9%
growth at 0.01 µM (MDA-MB-231 [4]): 109%
growth at 100 µM (SR): -26%
growth at 1 µM (OVCAR-3): 61%
growth at 0.01 µM (A498): 96%
growth at 1 µM (NCI-H226): 82%
growth at 0.1 µM (MDA-MB-231 [5]): 96%
growth at 100 µM (SF-295 [6]): -21%
growth at 0.1 µM (T47D): 94%
growth at 1 µM (NCI-H460): 77%
GI50 (SF-295 [7]; read-out: GI50): 1.37 µM
CC50 (SF-295 [7]; [13]): > 100 µM
TGI (SF-295 [7]; read-out: TGI): 72.1 µM
GI50 (SF-295 [7]; read-out: pGI50 (converted)): 1.78 µM
CC50 (SF-295 [7]; [14]): > 100 µM
TGI (SF-295 [7]; read-out: pTGI (converted)): 7.24 µM
growth at 100 µM (OVCAR-8): -9%
GI50 (SN12C; read-out: GI50): 3.1 µM
LC50 (SN12C; read-out: LC50): > 100 µM
TGI (SN12C; read-out: TGI): > 100 µM
GI50 (SN12C; read-out: pGI50 (converted)): 3.09 µM
LC50 (SN12C; read-out: pLC50 (converted)): > 100 µM
TGI (SN12C; read-out: pTGI (converted)): > 100 µM
GI50 (OVCAR-5 [8]; read-out: GI50): 4.3 µM
CC50 (OVCAR-5 [8]; [13]): > 100 µM
TGI (OVCAR-5 [8]; read-out: TGI): > 100 µM
GI50 (OVCAR-5 [8]; read-out: pGI50 (converted)): 4.37 µM
CC50 (OVCAR-5 [8]; [14]): > 100 µM
TGI (OVCAR-5 [8]; read-out: pTGI (converted)): > 100 µM
GI50 (IGROV-1; read-out: GI50): 4.36 µM
CC50 (IGROV-1; [13]): > 100 µM
TGI (IGROV-1; read-out: TGI): > 100 µM
GI50 (IGROV-1; read-out: pGI50 (converted)): 4.37 µM
CC50 (IGROV-1; [14]): > 100 µM
TGI (IGROV-1; read-out: pTGI (converted)): > 100 µM
growth at 1 µM (NCI/ADR-RES): 78%
GI50 (SNB-75; read-out: GI50): 2.11 µM
CC50 (SNB-75; [13]): > 100 µM
TGI (SNB-75; read-out: TGI): 45.6 µM
GI50 (SNB-75; read-out: pGI50 (converted)): 2.14 µM
CC50 (SNB-75; [14]): > 100 µM
TGI (SNB-75; read-out: pTGI (converted)): 49 µM
growth at 0.1 µM (Malme-3M [9]): 50%
growth at 100 µM (COLO 205 [10]): -100%
growth at 0.01 µM (UACC-257 [11]): 96%
growth at 0.1 µM (UACC-257 [12]): 96%
growth at 100 µM (HCT-15): -9%
growth at 100 µM (CAKI-1): -8%
growth at 1 µM (NCI-H522): 60%

— ChEMBL document CHEMBL4308841, “Synthesis, in vitro antiproliferative activity, and kinase inhibitory effects of pyrazole-containing diarylureas and diarylamides” (Eur J Med Chem, 2018)
